{"source": "patent US20230240953A1", "about": "“AN ANTIMICROBIAL COMPOSITION, PROCESS FOR PREPARING THE SAME AND METHOD OF USE THEREOF” (ISP INVESTMENTS LLC, priority 2020, published 2023)", "type_in_all_cases": "cell-based", "key": {"[1]": {"test_system": "Burkholderia cepacia 25416", "assay": "Minimal inhibitory concentration (MIC), microplate broth dilution", "conditions": "TSB, 10^6 cfu/ml, 48 hours at 35° C., read-out: Minimal Inhibitory Concentrations (MICs) mean values, B. cepacia", "method": "(§1) Briefly, each active was dissolved and then serially diluted in DMSO using a 96-well dilution microplate. Automated liquid handler was then used to stamp multiple assay plates out of this dilution plate. The appropriate growth medium containing a desired microorganism was then added to each well of the plate. For bacterial strains, Trypticase Soy Broth (TSB) was used with the final cell density of the microorganisms, in each well, being 10^6 cfu/ml. For fungal strains, Yeast Malt Broth (YMB) was used with the final density of each microorganism being 10^5 cfu/ml. Bacterial plates were incubated for 48 hours at 35° C. and fungal plates were incubated for 4-5 days at 28° C. prior to being evaluated. The lowest concentration of each compound to inhibit any visible growth was defined as minimum inhibitory concentration (MIC). In some cases, the highest tested concentration of the active was limited by its solubility in water. Whenever MIC was greater than the highest tested concentration, it was reported as being equal to, or greater than (>) the previous hypothetical dilution."}, "[2]": {"test_system": "Aspergillus brasiliensis 16404", "assay": "Minimal inhibitory concentration (MIC), microplate broth dilution", "conditions": "YMB, 10^5 cfu/ml, 4-5 days at 28° C., read-out: Minimal Inhibitory Concentrations (MICs) mean values, A. brasiliensis", "method": "as §1"}, "Escherichia coli 8739": {"test_system": "Escherichia coli 8739", "assay": "Minimal inhibitory concentration (MIC), microplate broth dilution", "conditions": "TSB, 10^6 cfu/ml, 48 hours at 35° C., read-out: Minimal Inhibitory Concentrations (MICs) mean values, E. coli", "method": "as §1"}, "[3]": {"test_system": "Pseudomonas aeruginosa 9027", "assay": "Minimal inhibitory concentration (MIC), microplate broth dilution", "conditions": "TSB, 10^6 cfu/ml, 48 hours at 35° C., read-out: Minimal Inhibitory Concentrations (MICs) mean values, P. aeruginosa", "method": "as §1"}, "[4]": {"test_system": "Staphylococcus aureus 6538", "assay": "Minimal inhibitory concentration (MIC), microplate broth dilution", "conditions": "TSB, 10^6 cfu/ml, 48 hours at 35° C., read-out: Minimal Inhibitory Concentrations (MICs) mean values, S. aureus", "method": "as §1"}, "Candida albicans 10231": {"test_system": "Candida albicans 10231", "assay": "Minimal inhibitory concentration (MIC), microplate broth dilution", "conditions": "YMB, 10^5 cfu/ml, 4-5 days at 28° C., read-out: Minimal Inhibitory Concentrations (MICs) mean values, C. albicans", "method": "as §1"}, "[5]": {"test_system": "Burkholderia cepacia 25416", "assay": "Checkerboard microplate synergy assay, compound A = HPB", "conditions": "Burkholderia cepacia, 25416; B. cepacia; HPB alone; read-out: HPB (QA): MIC of HPB acting alone", "method": "(§2) The synergistic antimicrobial effect was determined using a commonly accepted method described by Kull A. C, Eisman, P. C. Sylwestrowicz, H. D. and Mayer, R. L. 1961. Applied Microbiology, 9:538-541\n(§3) Briefly, the standard checkerboard approach was used to make all the dilutions. HPB (compound A) solution was prepared and then serially diluted in DMSO using the 96-well dilution plate. Automated liquid handler was then used to stamp multiple assay plates using this dilution plate. Each well of the assay plate was then supplemented with a predetermined concentration of the second antimicrobial (compound B). The final concentration of DMSO was kept constant across the plate for each assay, not exceeding 3% (w/w).\n(§4) To evaluate antibacterial activity of the actives, freshly prepared S. aureus and B. cepacia cells were harvested and resuspended in Trypticase Soy Broth (TSB). The cell suspension was then added to the wells of the appropriate plates with the final cell density being 10^6 cfu/ml. Fungal plates were incubated at 28° C. for 4-5 days, prior to being evaluated. Bacterial plates were incubated for 48 hours at 35° C. prior to being evaluated.\n(§5) Synergy Index (SI)=Qa/QA+Qb/QB • Qa is the MIC of compound A (HPB) in ppm, when compound A is being used in combination with compound B • QA is the MIC of compound A (HPB) in ppm, acting alone • Qb is the MIC of compound B in ppm, when the compound B is being used in combination with compound A • QB is the MIC of compound B in ppm, acting alone Each ratio Qa/QA and Qb/QB is sometimes referred to as Fractional Inhibitory Concentrations (FICs) of compounds A and B, respectively, when these two compounds are being used in combination with one another. The sum of FICs constitute the Synergy Index (SI). The synergistic effect is indicated if the Synergy Index is below one (SI<1). An additive effect is indicated if the Synergy Index is equal to one (SI=1). An antagonistic effect is indicated if synergy index is greater than one (SI>1). The lower the SI index the greater the synergy."}, "[6]": {"test_system": "Staphylococcus aureus 6538", "assay": "Checkerboard microplate synergy assay, compound A = HPB", "conditions": "Staphylococcus aureus, 6538; S. aureus; HPB alone; read-out: HPB (QA): MIC of HPB acting alone", "method": "as §2, §3, §4, §5"}, "[7]": {"test_system": "Aspergillus brasiliensis 16404", "assay": "Checkerboard microplate synergy assay, compound A = HPB", "conditions": "Aspergillus brasiliensis, 16404, HPB alone, read-out: HPB (QA): MIC of HPB acting alone", "method": "as §2, §3\nTo evaluate antifungal activity of the actives, freshly prepared A. brasiliensis spores were harvested and resuspended in Yeast and Malt Broth (YMB). The spore suspension was then added to the appropriate plates with the final density being 10^5 cfu/ml.\nas §4, §5"}}}
{"molecule": "CC(=O)/C=C/c1ccc(O)cc1", "note": "[4-Hydroxybenzylideneacetone, (E)-4-(4-hydroxyphenyl)but-3-en-2-one]", "values": [{"measurement": "MIC", "setting": "[1]", "value": 1000, "unit": "µg/mL"}, {"measurement": "MIC", "setting": "[2]", "value": 1000, "unit": "µg/mL"}, {"measurement": "MIC", "setting": "Escherichia coli 8739", "value": 2000, "unit": "µg/mL"}, {"measurement": "MIC", "setting": "[3]", "value": 4000, "unit": "µg/mL"}, {"measurement": "MIC", "setting": "[4]", "value": 500, "unit": "µg/mL"}, {"measurement": "MIC", "setting": "Candida albicans 10231", "value": 500, "unit": "µg/mL"}]}
{"molecule": "CC(=O)CCc1ccc(O)cc1", "note": "[Raspberry ketone, 4-(4-hydroxyphenyl) butan-2-one]", "values": [{"measurement": "MIC", "setting": "[5]", "value": 2000, "unit": "µg/mL"}, {"measurement": "MIC", "setting": "[6]", "value": "≥ 8000", "unit": "µg/mL"}, {"measurement": "MIC", "setting": "[1]", "value": 2000, "unit": "µg/mL"}, {"measurement": "MIC", "setting": "[2]", "value": 4000, "unit": "µg/mL"}, {"measurement": "MIC", "setting": "Escherichia coli 8739", "value": 4000, "unit": "µg/mL"}, {"measurement": "MIC", "setting": "[3]", "value": 4000, "unit": "µg/mL"}, {"measurement": "MIC", "setting": "[4]", "value": 28000, "unit": "µg/mL"}, {"measurement": "MIC", "setting": "Candida albicans 10231", "value": 4000, "unit": "µg/mL"}, {"measurement": "MIC", "setting": "[7]", "value": 4000, "unit": "µg/mL"}]}
{"molecule": "COc1ccc(CCC(C)=O)cc1", "note": "[Raspberry ketone methyl ether, 4-(4-methoxyphenyl)butan-2-one]", "values": [{"measurement": "MIC", "setting": "[1]", "value": 1000, "unit": "µg/mL"}, {"measurement": "MIC", "setting": "[2]", "value": 1000, "unit": "µg/mL"}, {"measurement": "MIC", "setting": "Escherichia coli 8739", "value": 2000, "unit": "µg/mL"}, {"measurement": "MIC", "setting": "[3]", "value": 4000, "unit": "µg/mL"}, {"measurement": "MIC", "setting": "[4]", "value": 28000, "unit": "µg/mL"}, {"measurement": "MIC", "setting": "Candida albicans 10231", "value": 2000, "unit": "µg/mL"}]}
